Results published in patent US12077503B2, “Substituted cyclic amides and their use as herbicides” (FMC CORPORATION, priority 2015, dated 2024).

Key:
Type in all cases: in vivo
[1] = system: giant foxtail (Setaria faberii); test: Test A preemergence; details: for Plant response rating, Foxtail, Giant: 125 g ai/ha; for Foxtail, Giant plant response rating (0 to 100 scale, 0 is no effect, 100 is complete control): 500 g ai/ha, visual injury approx. 10 d
Method in brief: (§1)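 In a loam soil and sand blend, planted seeds got a preemergence directed soil spray, and young plants at the one- to two-leaf stage, 2–10 cm high, got a postemergence application; ~10 d greenhouse hold; injury rated visually, 0 = none, 100 = complete control.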

[2] = system: barnyardgrass (Echinochloa crus-galli); test: Test A preemergence; details: for Plant response rating, Barnyardgrass: 125 g ai/ha; for Barnyardgrass plant response rating (0 to 100 scale, 0 is no effect, 100 is complete control): 500 g ai/ha, visual injury approx. 10 d
Method in brief: as §1

[3] = system: pigweed (Amaranthus retroflexus); test: Test A preemergence; details: Preemergence; for Plant response rating, Pigweed: 125 g ai/ha, visual injury after approximately 10 d, 0 to 100 scale where 0 is no effect and 100 is complete control; for Pigweed plant response rating (0 to 100 scale, 0 is no effect, 100 is complete control): 500 g ai/ha, visual injury approx. 10 d
[4] = system: ragweed (common ragweed, Ambrosia elatior); test: Test A preemergence; details: Preemergence; for Plant response rating, Ragweed: 125 g ai/ha, visual injury after approximately 10 d, 0 to 100 scale where 0 is no effect and 100 is complete control; for Ragweed plant response rating (0 to 100 scale, 0 is no effect, 100 is complete control): 500 g ai/ha, visual injury approx. 10 d
Method in brief: as §1

[5] = system: ryegrass, Italian (Italian ryegrass, Lolium multiflorum); test: Test A preemergence; details: Preemergence; for Plant response rating, Ryegrass, Italian: 125 g ai/ha, visual injury after approximately 10 d, 0 to 100 scale where 0 is no effect and 100 is complete control; for Ryegrass, Italian plant response rating (0 to 100 scale, 0 is no effect, 100 is complete control): 500 g ai/ha, visual injury approx. 10 d
Method in brief: as §1

[6] = system: Kochia (Kochia scoparia); test: Test A preemergence; details: for Plant response rating, Kochia: 125 g ai/ha; for Kochia plant response rating (0 to 100 scale, 0 is no effect, 100 is complete control): 500 g ai/ha, visual injury approx. 10 d
Method in brief: as §1

[7] = system: giant foxtail (Setaria faberii); test: Test A postemergence
Method in brief: as §1

[8] = system: corn (Zea mays); test: Test A postemergence
Method in brief: as §1

[9] = system: barnyardgrass (Echinochloa crus-galli); test: Test A postemergence; details: for Barnyardgrass plant response rating: visual injury rating on 0 to 100 scale (0 no effect, 100 complete control), approx. 10 d
Method in brief: as §1

[10] = system: pigweed (Amaranthus retroflexus); test: Test A postemergence
Method in brief: as §1

[11] = system: blackgrass (Alopecurus myosuroides); test: Test A postemergence; details: for Blackgrass plant response rating: visual injury rating on 0 to 100 scale (0 no effect, 100 complete control), approx. 10 d
Method in brief: as §1

[12] = system: ragweed (common ragweed, Ambrosia elatior); test: Test A postemergence
Method in brief: as §1

[13] = system: ryegrass, Italian (Italian ryegrass, Lolium multiflorum); test: Test A postemergence
Method in brief: as §1

[14] = system: Kochia (Kochia scoparia); test: Test A postemergence
Method in brief: as §1

[15] = system: wheat (Triticum aestivum); test: Test A postemergence
Method in brief: as §1

[16] = system: Galium (catchweed bedstraw, Galium aparine); test: Test A postemergence
Method in brief: as §1

[17] = system: sedge, umbrella (small-flower umbrella sedge, Cyperus difformis); test: Test B flooded paddy test; details: Flood, 250 g ai/ha; 0 to 100 scale where 0 is no effect and 100 is complete control; 13 to 15 d
Method in brief: (§2)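 Greenhouse paddy pots with 2-leaf stage plants received compound by direct addition to floodwater 3 cm deep, kept at that level. Scored visually at 13–15 d versus controls (0 no effect; 100 complete control).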

[18] = system: rice (Oryra sativa); test: Test B flooded paddy test; details: Flood, 250 g ai/ha; 0 to 100 scale where 0 is no effect and 100 is complete control; 13 to 15 d
Method in brief: as §2

[19] = system: barnyardgrass (Echinochloa crus-galli); test: Test B flooded paddy test; details: Flood, 250 g ai/ha; 0 to 100 scale where 0 is no effect and 100 is complete control; 13 to 15 d
Method in brief: as §2

[20] = system: ducksalad (Heteranthera limosa); test: Test B flooded paddy test; details: Flood, 250 g ai/ha; 0 to 100 scale where 0 is no effect and 100 is complete control; 13 to 15 d
Method in brief: as §2

[21] = Preemergence, visual injury after approximately 10 d, 0 to 100 scale where 0 is no effect and 100 is complete control
[22] = 125 g ai/ha, postemergence, visual rating after approx. 10 d, 0 to 100 scale (0 no effect, 100 complete control)
[23] = Postemergence, 500 g ai/ha, 0 to 100 scale where 0 is no effect and 100 is complete control
[24] = preemergence, 0 to 100 scale (0 no effect, 100 complete control)
[25] = 125 g ai/ha, postemergence, visual injury rating on 0 to 100 scale (0 no effect, 100 complete control), approx. 10 d
[26] = 500 g ai/ha, postemergence, 0 to 100 scale, 0 no effect, 100 complete control

Structure (SMILES) | Plant response rating, Foxtail, Giant [1, 21] | Foxtail, Giant plant response rating (0 to 100 scale, 0 is no effect, 100 is complete control) ([1]; Preemergence) | Barnyardgrass plant response rating (0 to 100 scale, 0 is no effect, 100 is complete control) ([2]; Preemergence) | Plant response rating, Pigweed [3] | Plant response rating, Ragweed [4] | Ragweed plant response rating (0 to 100 scale, 0 is no effect, 100 is complete control) [4] | Plant response rating, Ryegrass, Italian [5] | Ryegrass, Italian plant response rating (0 to 100 scale, 0 is no effect, 100 is complete control) [5] | Kochia plant response rating (0 to 100 scale, 0 is no effect, 100 is complete control) ([6]; Preemergence) | Plant response rating, Foxtail, Giant [7, 23] | Plant response rating, Pigweed [10, 23] | Plant response rating, Ragweed [12, 23] | Plant response rating, Ryegrass, Italian [13, 23] | Plant response rating, Kochia [14, 23] | Plant response rating, Wheat [15, 23] | Plant response rating, Galium [16, 23] | Plant response rating, Sedge, Umbrella [17] | Plant response rating, Rice [18] | Plant response rating, Barnyardgrass [19] | Plant response rating, Ducksalad [20] | further results
O=C1NCC(c2cc(C(F)(F)F)cc(C(F)(F)F)c2)C1C(=O)Nc1ccccc1F (centres unmarked) [Compound 587] | 90 | 90 | 90 | 0 | 0 | 0 | 20 | 60 | 0 | 90 | 0 | 0 | 30 | 20 | 60 | 0 | 0 | 20 | 55 | 75 | Plant response rating, Barnyardgrass [2, 21]: 90; Plant response rating, Kochia [6, 21]: 0; Plant response rating, Foxtail, Giant [7, 22]: 80; Plant response rating, Corn [8, 22]: 40; Plant response rating, Corn [8, 23]: 70; Plant response rating, Barnyardgrass [9, 22]: 80; Plant response rating, Barnyardgrass [9, 23]: 90; Plant response rating, Pigweed [10, 22]: 0; Plant response rating, Blackgrass [11, 22]: 20; Plant response rating, Blackgrass [11, 23]: 60; Plant response rating, Ragweed [12, 22]: 0; Plant response rating, Ryegrass, Italian [13, 22]: 0; Plant response rating, Kochia [14, 22]: 0; Plant response rating, Wheat [15, 22]: 40; Plant response rating, Galium [16, 22]: 0
CCc1ccc(C2CNC(=O)C2C(=O)Nc2cccc(F)c2F)cc1 (centres unmarked) [Compound 467] |  | 100 | 90 | 0 | 30 | 70 | 0 | 20 | 50 | 80 | 0 | 20 | 40 | 0 | 30 | 0 | 0 | 0 | 20 | 80 | Plant response rating, Foxtail, Giant [1, 24]: 90; Plant response rating, Barnyardgrass [2, 24]: 90; Pigweed plant response rating (0 to 100 scale, 0 is no effect, 100 is complete control) [3]: 0; Plant response rating, Kochia [6, 24]: 30; Foxtail, Giant plant response rating [7, 25]: 40; Corn plant response rating [8, 25]: 0; Plant response rating, Corn [8, 26]: 20; Barnyardgrass plant response rating ([9]; 125 g ai/ha, postemergence): 80; Plant response rating, Barnyardgrass [9, 26]: 90; Pigweed plant response rating [10, 25]: 0; Blackgrass plant response rating ([11]; 125 g ai/ha, postemergence): 0; Plant response rating, Blackgrass [11, 26]: 0; Ragweed plant response rating [12, 25]: 0; Ryegrass, Italian plant response rating [13, 25]: 0; Kochia plant response rating [14, 25]: 0; Wheat plant response rating [15, 25]: 0; Galium plant response rating [16, 25]: 0
O=C1NCC(c2cc(F)ccc2F)C1C(=O)Nc1ccccc1F (racemic) [Compound 544] | 70 | 90 | 80 | 0 | 0 | 0 | 0 | 0 | 0 | 60 | 0 | 0 | 0 | 0 | 0 | 0 | 0 | 0 | 25 | 45 | Plant response rating, Barnyardgrass [2, 21]: 30; Pigweed plant response rating (0 to 100 scale, 0 is no effect, 100 is complete control) [3]: 0; Plant response rating, Kochia [6, 21]: 0; Plant response rating, Foxtail, Giant [7, 22]: 0; Plant response rating, Corn [8, 22]: 0; Plant response rating, Corn [8, 23]: 20; Barnyardgrass plant response rating ([9]; 125 g ai/ha, postemergence): 20; Plant response rating, Barnyardgrass [9, 23]: 70; Plant response rating, Pigweed [10, 22]: 0; Blackgrass plant response rating ([11]; 125 g ai/ha, postemergence): 0; Plant response rating, Blackgrass [11, 23]: 0; Plant response rating, Ragweed [12, 22]: 0; Plant response rating, Ryegrass, Italian [13, 22]: 0; Plant response rating, Kochia [14, 22]: 0; Plant response rating, Wheat [15, 22]: 0; Plant response rating, Galium [16, 22]: 0
